Laboratory results published in PubChem BioAssay (NCI).
Several values for one entry are separate records, joined by “and”; a condition that tells them apart may be missing. Equal entries are not always repeated.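 Cultured in 96-well plates, cells were exposed to test compound for 48 hours across five concentrations. GI50 = concentration required for 50% inhibition of growth. The concentration for full growth arrest is given as TGI.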

Experiments:
Experiment in all cases: NCI tumour cell line growth inhibition, 48 h
COLO 205 colon = tested on: COLO 205 colon
DU-145 prostate = tested on: DU-145 prostate
EKVX NSCLC = tested on: EKVX NSCLC
HL-60(TB) leukemia = tested on: HL-60(TB) leukemia
OVCAR-8 ovarian = tested on: OVCAR-8 ovarian
SF-268 CNS = tested on: SF-268 CNS
SK-MEL-28 melanoma = tested on: SK-MEL-28 melanoma
U251 CNS = tested on: U251 CNS
UACC-62 melanoma = tested on: UACC-62 melanoma
NCI-H522 lung = tested on: NCI-H522 lung

Row | Compound | TGI (COLO 205 colon) | TGI (DU-145 prostate) [µM] | TGI (EKVX NSCLC) | TGI (HL-60(TB) leukemia) | TGI (OVCAR-8 ovarian) | TGI (SF-268 CNS) | TGI (SK-MEL-28 melanoma) | TGI (U251 CNS) | TGI (UACC-62 melanoma) | TGI (NCI-H522 lung) | GI50 (COLO 205 colon) [µM] | GI50 (EKVX NSCLC) [µM] | GI50 (HL-60(TB) leukemia) | GI50 (NCI-H522 lung) [µM] | GI50 (OVCAR-8 ovarian) [µM] | GI50 (SF-268 CNS) | GI50 (SK-MEL-28 melanoma) [µM] | GI50 (U251 CNS) [µM] | GI50 (UACC-62 melanoma) [µM]
1 | CNC(=O)OCC1=C(COC(=O)NC)C(C)N(c2ccc(OC)cc2)C1 (stereo not drawn) | > 100 µM | > 100 | > 100 µM | 55.2 µM | > 100 µM | > 100 µM | > 100 µM | > 100 µM | 57.3 µM |  |  |  |  |  |  |  |  |  | 
2 | O=C(CCC(=O)c1ccc(Cl)cc1)NO | > 100 µM | > 100 | > 100 µM | > 100 µM | > 100 µM | > 100 µM | > 100 µM | > 100 µM | > 100 µM | > 100 µM |  |  |  |  |  |  |  |  | 
3 | COc1ccc(CNc2nc(NCc3ccc(OC)c(OC)c3)nc(NC3CCCCC3)n2)cc1 | 21 µM | > 100 | > 100 µM | > 100 µM | > 100 µM |  | > 100 µM | > 100 µM | > 100 µM | 5.74 µM |  |  |  |  |  |  |  |  | 
4 | COC(=O)[C@H]1CO[C@@H](C(C)(C)C)N1C(=O)N1C=CC(=O)C[C@@H]1C | > 100 µM | > 100 | > 100 µM | > 100 µM | > 100 µM | > 100 µM | > 100 µM | > 100 µM | > 100 µM | > 100 µM |  |  |  |  |  |  |  |  | 
5 | CCNC(=S)N/N=C/c1cc([N+](=O)[O-])ccc1O | > 100 µM | > 100 | > 100 µM | 40.8 µM | > 100 µM | > 100 µM | > 100 µM | > 100 µM | 93.9 µM | 59.3 µM |  |  |  |  |  |  |  |  | 
6 | Clc1ccc(/C=C/c2nc3ccccc3s2)cc1Cl | > 100 µM | > 100 | > 100 µM | > 100 µM | > 100 µM | > 100 µM | > 100 µM | > 100 µM | > 100 µM | > 100 µM |  |  |  |  |  |  |  |  | 
7 | CC(=O)O[C@H]1C(=O)[C@]2(C)[C@@H](OC(=O)OCCC(O)CO)C[C@H]3OC[C@@]3(OC(C)=O)[C@H]2[C@H](OC(=O)c2ccccc2)[C@]2(O)C[C@H](OC(=O)[C@H](O)[C@@H](NC(=O)c3ccccc3)c3ccccc3)C(C)=C1C2(C)C (stereo partly drawn) |  | 0.0657 | > 100 µM | < 0.0106 µM |  | 34.9 µM |  | 18 µM | 24.8 µM | < 0.01 µM |  |  |  |  |  |  |  |  | 
8 | O=C1C(=Cc2ccc(O)cc2)N=C(c2ccccc2)N1n1c(-c2ccccc2)nc2ccccc2c1=O | > 100 µM | > 100 | > 100 µM | > 100 µM | > 100 µM | > 100 µM | > 100 µM |  | > 100 µM | > 100 µM |  |  |  |  |  |  |  |  | 
9 | O=C1/C(=C/c2ccc(O)cc2)CC/C1=C\c1ccc(O)cc1 | > 100 µM | > 100 | > 100 µM | 34.5 µM | > 100 µM | > 100 µM | > 100 µM | > 100 µM | > 100 µM | > 100 µM |  |  |  |  |  |  |  |  | 
10 | CCC[C@@H](O)C[C@@H]1CCC[C@H](C[C@@H](O)CC)N1C | > 100 µM | > 100 | > 100 µM | > 100 µM | > 100 µM | 45.1 µM | > 100 µM | > 100 µM | > 100 µM | 30.7 µM |  |  |  |  |  |  |  |  | 
11 | Cc1c2cnccc2c(C)c2c1c1ccccc1n2CCCN | 0.986 µM and 0.629 µM | 0.798 | 1.37 µM and 0.506 µM | 1.52 µM and 1.81 µM | 1.41 µM and 1.22 µM | 0.879 µM and 0.583 µM | 1.98 µM and 1.25 µM | 0.911 µM and 0.523 µM | 1.7 µM and 1.75 µM | 1.28 µM and 0.281 µM | 0.18 | 0.153 | 0.527 µM and 0.414 µM | 0.108 | 0.205 | 0.2 µM and 0.141 µM | 0.333 | 0.0696 | 0.517
12 | C=C(C1=CC(=O)C(C)(C)O1)[C@@H]1CC=C([C@@H]2CC[C@H]3[C@@]2(C)CC[C@H]2C(C)(C)C(=O)[C@H](O)C[C@]32C)[C@H](O)O1 | 3.51 µM | 2.91 | 22.2 µM | 8.11 µM | 4.75 µM | 3.76 µM | 12.2 µM | 3.06 µM | 14.9 µM |  |  |  |  |  |  |  |  |  | 
13 | Cc1cc(=O)[nH]c(NN2C(Cl)C(=O)C2c2ccccc2O)n1 (stereo not drawn) | > 76.8 µM | > 100 | > 75.1 µM | > 100 µM | > 100 µM | > 100 µM | > 65.4 µM | > 100 µM | > 46.7 µM |  |  |  |  |  |  |  |  |  | 
14 | C=C1c2nc3ccccc3n2C=C(c2ccccc2)N1c1ccc([N+](=O)[O-])cc1 | 48.4 µM | > 74.7 | 24.8 µM | > 88.1 µM | 43.4 µM | 49.1 µM | > 65.2 µM | 22.6 µM | 32.3 µM | 24.4 µM |  |  |  |  |  |  |  |  | 
15 | COc1ccc(/C=C2\CCC(C)C3=C2NC(=S)NC3c2ccc(OC)c(OC)c2)cc1OC (stereo not drawn) | 24.7 µM | > 31.6 | > 31.6 µM | > 31.6 µM | > 90.2 µM | > 31.6 µM | > 31.6 µM | > 31.6 µM | > 31.6 µM | > 100 µM |  |  |  |  |  |  |  |  | 
16 | Cc1ccccc1-n1c(=O)c2ncn(CCCl)c2n(-c2ccccc2C)c1=S | > 100 µM | > 100 | > 100 µM | > 100 µM | > 100 µM | > 100 µM | > 100 µM | > 100 µM | > 100 µM | > 100 µM |  |  |  |  |  |  |  |  | 
17 | COC(=O)C1CCC(=O)N1C(c1ccccc1)c1ccc(OC)c(OC)c1 (stereo not drawn) | > 100 µM | > 100 | > 100 µM | > 100 µM | > 100 µM | > 100 µM | > 100 µM | > 100 µM | > 100 µM | > 100 µM |  |  |  |  |  |  |  |  | 
18 | COc1ccc(C2c3cc4c(cc3OC(NNS(=O)(=O)c3ccc(C)cc3)C2C)OCO4)cc1 (stereo not drawn) | > 100 µM | > 100 |  | 84.7 µM | > 100 µM | > 100 µM | > 100 µM | > 100 µM | > 100 µM | > 100 µM |  |  |  |  |  |  |  |  | 
19 | CC1=CC2C(O1)C1C(=O)C=CC(=O)C1=CC2[N+](=O)[O-] (stereo not drawn) | 21.2 µM | > 55.9 | 33.8 µM | > 22.5 µM | 60.2 µM | 29.3 µM | 68.4 µM | 36.3 µM | 36.2 µM |  |  |  |  |  |  |  |  |  | 
20 | Cc1cc(O)c2c(=O)c3ccccc3[nH]c2c1 | 42 µM | > 100 | > 100 µM | 64.7 µM | 70.2 µM | > 100 µM | > 100 µM | > 100 µM |  | 16 µM |  |  |  |  |  |  |  |  | 
